The test system of data set [1] is Jurkat cells. Nature of the data set: Raman microscopy cell penetration study of cryoprotectants. The class given is cell-based. Particulars: for Penetration: Raman microscopy, at room temperature and at freezing temperatures; for location of cryoprotectant in Raman contrast image: Jurkat cells frozen in either glycerol or trehalose, FIG. 12. The protocol:
Raman microscopy data provides an indication of the location of action of each cryopreservative. The images in FIG. 12 show Jurkat cells frozen in either glycerol (penetrating) or trehalose (non-penetrating).
These experiments were performed for most of the components described in the sections above both at room temperature and at freezing temperatures to assess whether penetration was temperature dependent.
Confocal Raman Microspectroscopy (CRM) measurements are conducted using Witec Confocal Raman Microscope System Alpha 300R (WITec, Wissenschaftliche Instrumente und Technologie GmbH, Ulm, Germany) with UHTS300 spectrometer and DV401 CCD detector. A wavelength of 532 nm Nd:YAG laser and 10 mW of power is used as excitation source. The laser is transferred to the microscopy in a singer fiber. A 100× air objective (NA 0.90; Nikon Instruments, Melville, N.Y.) is used for focusing the 532 nm excitation laser to the sample. Data collection and analysis are performed by Windows-based WitecControl_1.38 software.

A further data set concerns the target lysozyme (Gallus gallus, UniProt P00698). Briefly: Differential scanning calorimetry, denaturation temperature of lysozyme in osmolyte solution. Format: physicochemical. Particulars: 1 mg/ml lysozyme in 20 mM HEPES buffer; single osmolytes 600 mM; heated at 1° C./min; pH 7.3. The protocol: Lysozyme powder was dissolved into each solution reaching final concentration of 100 mg/ml and then refrigerated. Lysozyme in DPBS solution was used as control. For DSC measurements, experiment solution was made by dissolving osmolyte into 20 mM HEPES buffer and the concentration of osmolyte in each solution remained same as in DPBS solution. Lysozyme powder was dissolved into each solution reaching final concentration of 1 mg/ml and kept refrigerated. Lysozyme in HEPES buffer was used as control. The pH of solutions was 7.3 measured by Beckman 350 meter. Differential scanning calorimetry was performed on a differential scanning calorimeter (Q1000, TA Instruments, New Castle, Del.). Osmolyte solutions containing lysozyme were heated in order to determine the denaturation temperature of lysozyme. Experimental solutions were heated from room temperature to 90° C. at 1° C./min. Specific heat, Cp, was calculated from the heat flow data assuming Cp as a function of temperature were analyzed using OriginPro software (OriginLab Corp., Northampton, Mass.) to subtract curve baseline. The midpoint temperature, Tm, was obtained as the temperature corresponding to the maximum specific heat value from the baseline and the denaturation temperature was assumed to be Tm^32.

Data set [2] has as its system Jurkat cells. Nature of the data set: High throughput factorial screening with Linear Mixed Effects statistical analysis of recovery. Format: cell-based. Particulars: for correlation with recovery: statistical analysis, data not shown. Here is the method:
(§1) In another evaluation, cells were combined with factorial combinations of the components listed in Table 5, using one component from each category. Plates including cells and solutions were frozen at cooling rates of 1′C/min, 3′C/min, 5′C/min, or 10′C/min.
(§2) Recovery was calculated by dividing the number of live cells post thaw—calculated using a control curve correlating calcein-acetoxymethyl (AM) fluorescence to cell count—by the number of live cells seeded pre-freeze (AO/PI counts taken prior to freezing). Recovery was normalized by dividing by the DMSO recovery on each plate, then multiplying by a standard DMSO recovery for each cooling rate. This normalized recovery was used to compare samples between different plates and different cooling rates.
(§3) Statistical analysis of the data was performed using a Linear Effects Model. The model associated with best fit was determined using Bayesian Information Criteria. […] The ten best combinations for Jurkats are summarized in Table 6 below, while the eight best combinations for MSCs are summarized in Table 7.
High throughput factorial screening experiments were performed on a Biomek Beckman FX 96 liquid handling robot. Briefly, 12.5 μl of an array of additives were transferred to nine 96-well plates containing 12.5 μl of different sugar alcohols. Cells (25 μl) diluted in either a sugar (in a solution of NORMOSOL-R; Hospira, Inc., Lake Forest, L) or a NORMOSOL-R blank solution were transferred to these nine plates to give a final volume of 50 μl in each well. Cells suspended in […] in media were also included as a row of each plate to serve as normalization wells for plate-to-plate comparison.
When all plate volume transfers were complete, silicone plate covers were used to seal each plate, and plates were transferred to a controlled rate freezer (Kryo 10 Series III, Planer PLC, Middlesex, United Kingdom) and frozen at cooling rates ranging from 1° C./min to 10° C./min. The concentrations of components present in solution are listed in Table 11, and were selected based on values described in literature or solubility limits. Component concentrations were 0 if not listed in a solution.
Plate samples were also assessed for viability using fluorescence. Briefly, a solution of calcein-AM/propidium iodide was prepared and a volume of 50 μl was added to each sample well of experimental 96-well plates, producing a 1:1 dilution. Plates were protected from light and placed in an incubator for 30 minutes to allow for calcein-AM digestion. A fluorescent plate reader (Synergy HT, BioTek Instruments, Inc., Winooski, Vt.) was used to determine the fluorescence in each well, which was correlated to live and dead cell counts using a control curve.
Viability was calculated for all samples by dividing the number of live cells by the number of total cells. Recovery was calculated directly by dividing the number of live cells post thaw by the number of live cells pre-freeze. Recovery for 96-well plate samples was further normalized; each experimental sample recovery was divided by the DMSO recovery on the same plate, and then multiplied by the standard DMSO recovery for the cooling rate of each experiment.
To assess the importance of the four explanatory variables of interest (Sugar, Rate, Additive and Alcohol), without neglecting the variation between each batch and between each plate within the batches, we sought to find the best Linear Mixed Effects (LME) model. […]

In another data set the test system is MSCs. Described as above. Particulars: for correlation with recovery: statistical analysis. Format: cell-based, human. Here is the method: as §1, §2, §3
To assess the importance of the four explanatory variables of interest (Sugar, Rate, Additive and Alcohol), without neglecting the variation between each batch and between each plate within the batches, we sought to find the best Linear Mixed Effects (LME) model. With yi the i'th outcome of the response, Xi the corresponding values of the covariates, the LME model is defined as
To select the most fitting model, we performed backward elimination based on the Bayesian Information Criterion (BIC) starting with a model that includes all variables and second order interactions. Furthermore, we included two random variables, one to catch the effect of the batch, and one to catch the effect of each plate within the batch—i.e., the full model is: […]

In data set [3] the test system is Jurkat cells. Briefly: 96-well plate freezing, post-thaw scaled raw recovery (calcein-AM/PI). Format: cell-based. Particulars: 150, 300, 600 mM total sugar; FIG. 8. The protocol: The first phase of this study involved using the DE algorithm to develop a three-component cryopreservation solution used at a single cooling rate (1° C./min). Three components (trehalose, glycerol, and ectoine (TGE)) were selected as components of the exemplary freezing medium used for preservation of Jurkat cells, a hematopoietic model cell type, based on pre-screening of multiple non-DMSO components. For this single cooling rate study, the DE algorithm was programmed to output 18 vector solutions per generation with a weight=0.85 and a crossover=1. Jurkat cells cryopreserved in 10% DMSO at a cooling rate of 1° C./min were used as a control.
Cooling rate influences cell survival, and the preferred cooling rate for a given application can depend, at least in part, on the composition of the freezing medium and the cell type being frozen. […] To assess both cooling rate and the composition of the solution, the DE algorithm was programmed to output 27 vector solutions per generation with weight=0.85 and a crossover=1. Solutions were separated into categories based on their DE algorithm defined cooling rate, and were frozen in batches at a cooling rate of […], 0.5° C./min, 1° C./min, 3° C./min, 5° C./min, or 10° C./min. Results were normalized and scaled raw recovery is reported, allowing results from all cooling rates and all generations to be compared directly. […]
After 96 well plates were thawed, calcein-acetoxymethyl (AM)/propidium iodide was added to each well and the wells were covered from light and placed in a 37° C. incubator for 30 minutes to allow the live cells to cleave calcein-AM. The plates were then analyzed for fluorescence on a plate reader. Raw fluorescence values were used to calculate the number of live and dead cells present in each well by correlating to a control curve of unfrozen cells. The live cell recovery was calculated by dividing the number of live cells present in thawed samples (calcein-AM plate reader fluorescence) by the number of live cells seeded pre-freeze (AO/PI counts). […]

Where [4] appears, read: statistical analysis of sugar and cooling rate.

Chain of lysozyme (P00698 19-147): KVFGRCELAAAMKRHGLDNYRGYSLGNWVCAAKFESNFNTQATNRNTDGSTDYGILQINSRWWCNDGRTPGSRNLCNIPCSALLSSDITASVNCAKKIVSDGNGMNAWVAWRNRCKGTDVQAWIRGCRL

On to `NCCS(=O)(=O)O` [Taurine], for which, in the data set on Jurkat cells [1], the Penetration entry is recorded as “Yes”.
The same measure, in the same setting: the same measure for `OCCO` [Ethylene glycol]: “Yes”.
On to `OC[C@@H](O)[C@@H](O)[C@H](O)[C@H](O)CO` [Mannitol], for which the Penetration entry in the data set on Jurkat cells [1] is “Yes”.
For the compound `CC1=NCC[C@@H](C(=O)O)N1` [Ectoine], the “Denaturation temperature Tm of lysozyme” value on lysozyme came to 79.6 °C. The Penetration entry in the data set on Jurkat cells [1] is “Yes”.
`OC[C@@H](O)[C@@H](O)[C@@H](O)CO` [ribitol]: the correlation with recovery result in the data set on Jurkat cells [2] and with MSCs was “negatively correlated” each time.
`O=C(O)[C@@H]1CCCN1` [Proline]: the correlation with recovery result in the data set with Jurkat cells [2] and in the data set with MSCs was “negatively correlated” in each case. In addition, the Penetration result in the data set with Jurkat cells [1] is “Yes”.
Turning to `OC[C@@H](O)[C@H](O)[C@@H](O)CO` [Xylitol], the Penetration result with Jurkat cells [1] was “Yes”.
On to `CC(C)[C@H](N)C(=O)O` [Valine], for which, in the data set with MSCs, the correlation with recovery entry is given as “negatively correlated”. The Penetration entry in the data set with Jurkat cells [1] is given as “Yes”.
`C[C@H](N)C(=O)O` [Alanine]: the Penetration entry in the data set with Jurkat cells [1] is given as “Yes”.
Regarding `OC[C@H]1O[C@H](O[C@H]2O[C@H](CO)[C@@H](O)[C@H](O)[C@H]2O)[C@H](O)[C@@H](O)[C@@H]1O` [Trehalose], the “cooling rate at which cells performed better with the sugar” value with Jurkat cells [2] (setting [4]) came out at 5° C./min; in the data set on MSCs (setting [4]) it was 10° C./min. Further, in the data set with Jurkat cells [1], the “location of cryoprotectant in Raman contrast image” value is reported as “excluded from the cell”. In addition, the Penetration result in the data set on Jurkat cells [1] is on record as “Semi*”. Further, in the data set with Jurkat cells [3], the “recovery of Jurkat cells, sugar synergy study” value is recorded as “outperformed monosaccharides”.
Regarding `O[C@H]1[C@H](O)[C@@H](O)[C@H](O)[C@@H](O)[C@H]1O` [Inositol], the Penetration result in the data set on Jurkat cells [1] is listed as “Yes”.
Regarding `O=C(CO)[C@@H](O)[C@H](O)[C@H](O)CO` [Fructose], in the data set on Jurkat cells [1], the Penetration entry is given as “Yes”.
On to `OC[C@@H](O)[C@@H](O)CO` [erythritol], for which the correlation with recovery entry in the data set on Jurkat cells [2] and in the data set with MSCs was “negatively correlated” throughout.
As to `OC[C@@H](O)[C@@H](O)[C@H](O)[C@@H](O)CO` [Sorbitol], the correlation with recovery entry with MSCs is on record as “positively correlated”. For the same compound, the “Denaturation temperature Tm of lysozyme” value at lysozyme was 83.1 °C. The Penetration result with Jurkat cells [1] is listed as “Yes”.
Turning to `OCC(O)CO` [Glycerol], the correlation with recovery entry in the data set on MSCs is on record as “positively correlated”. Moreover, in the data set with Jurkat cells [1], the “location of cryoprotectant in Raman contrast image” value was “present both inside the cell and in the super cooled liquid surrounding the cell”; the Penetration entry is given as “Yes”.

The record behind these values is patent publication US20220030850A1, “CRYOPRESERVATIVE COMPOSITIONS AND METHODS” (REGENTS OF THE UNIVERSITY OF MINNESOTA, priority 2015, published 2022).
